Here are results for 13 molecules from US6555676B2, “Biologically active phosphotriester-type compounds” (Centre National de la Recherche Scientifique, priority 1992, dated 2003).

Where two headings read alike, the source gives them in different places. Bounds are passed on as bounds.

Data set [1] has as its system non-infected CEM-TK− cells. Kind of data set: Toxic effect on non-infected cells (MTT/formazan), CEM-TK−. The format is cell-based, Human. As to conditions: 50% inhibition of formazan formation, 5 days. As to the method: (§1) The toxic effect on non-infected CEMs is assessed by a calorimetric reaction based on the capacity of living cells to reduce 3-(4,5-dimethylthiazol-2-yl)-2,5-diphenyltetrazolium bromide into formazan after incubation for 5 days in the presence of various concentrations of the compounds.

Data set [2] is classed as in vitro ADME. Here is the method:
(§2) The “ISRP on line” HPLC technique (“On-line Internal Surface Reversed-Phase Cleaning: The Direct HPLC Analysis of Crude Biological Samples”, A. Pompon, I. Lefebvre and J. L. Imbach, Biochemical Pharmacology, 43,1769-1775 (1992) was used for this study, the compound studied being incubated respectively in culture medium (RPMI/10% inactivated serum) and in a total cell extract (CEM).
(§3) Certain kinetic studies comparing the compound of Example 16A, i.e., S,S′-bis(O-pivaloyl-2-oxyethyl) O-2, 3-dideoxyadenosin-5′-yl phosphorodithiolate, also designated as iso[Bis(SATE)ddA] and its isosteric compound of Example 9, i.e., O-(2′,3′-dideoxyadenosin-5′-yl)-O,O′-bis([…]) phosphate, also designated as [Bis(SATE)ddAMP] were effected. The kinetic were studies were performed in culture medium (RPMI containing […] heat-inactivated fetal calf serum) in order to evaluate the stability of the pronucleotides in the extracellular medium used for antiviral evaluation in cell culture systems, and in total cell extracts that mimic the behavior of the compounds inside cells. The “on-line ISPR cleaning” HPLC method of Lefebvre et al., J. Med. Chem., 38, 3941-3950, 1995, were used for the studies. The products resulting from the decomposition were characterized by co-injection with authentic samples and/or by coupled HPLC/Mass Spectroscopy. The kinetics of transformation of the two isomeric pronucleotides strongly differed according to the medium. In culture medium the first iso-SATE group was cleaved in 38.5 hr whereas the first SATE group was cleaved in 165 hr. The second iso-SATE group was cleaved in 5.8 hr whereas the second SATE group was cleaved in 46 hr. In total cell extracts, the first iso-SATE group was cleaved in 5.3 hr whereas the SATE group was cleaved in 1 hr.

Data set [3] is classed as in vitro ADME, Human. Here is the method:
as §2, §3

Data set [4] concerns HIV-1 (LAI isolate). As to the kind of experiment: Anti-HIV-1 activity (RTase in culture supernatant) in CEM-TK− cells. As to conditions: for EC50: CEM-TK− cells, lowest concentration reducing RTase production by at least 50%, 5 days, read-out: ED50 (the source's name). It is filed as cell-based. Here is the method:
(§4) HIV-1 replication (LAI isolate) in CEM cells is measured by assaying the reverse transcriptase (RTase) in the culture supernatant after infection for 5 days. This activity reflects the presence of the virus released by the cells. After adsorption of the virus, the test compounds are added, at various concentrations, to the culture medium.
(§5) Antiviral activity is expressed as the lowest concentration of compound which reduces the production of RTase by at least 50% (ED50)
(§6) The compounds were tested as described in Example 5 above.
(§7) The iso-SATE pronucleotides of Examples 16A and 16B were evaluated for their inhibitory effects on the replication of HIV-1 in CEM-SS and in thymidine-kinase deficient cell lines (CEM/TD). For comparison, the parent nucleosides ddA and d4T, and the corresponding bis(SATE) phosphotriesters bis(tBuSATE)ddAMP (the compound of Example 9) and bis(tBuSATE)d4TMP, were evaluated in the same experiments.

Data set [5] relates to HIV-1 (LAI isolate). Kind of data set: Anti-HIV-1 activity (RTase in culture supernatant) in CEM-SS cells. The format is cell-based. Particulars: lowest concentration reducing RTase production by at least 50%, 5 days, read-out: ED50 (the source's name). Here is the method: as §4, §5, §6, §7
Another data set deals with HIV-1. Kind of data set: Anti-HIV-1 activity in MT-4 cells. It is filed as cell-based, Human immunodeficiency virus. Particulars: for EC50: read-out: ED50 (the source's name). Here is the method:
as §4, §5, §6

Data set [6] concerns non-infected CEM-SS cells. Kind of data set: Toxic effect on non-infected cells (MTT/formazan), CEM-SS. It is filed as cell-based, Human. Particulars: 50% inhibition of formazan formation, 5 days. Here is the method: as §1
Another data set has as its system non-infected MT-4 cells. As to the kind of experiment: Toxic effect on non-infected cells (MTT/formazan), MT-4. The format is cell-based, Human. Particulars: 50% inhibition of formazan formation.
The target of a further data set is reverse transcriptase (Human immunodeficiency virus type 1 group M subtype B, UniProt P04585). As to conditions: cited from earlier work.
[7] abbreviates: culture medium (RPMI with heat-inactivated fetal calf serum).

With `CC(=O)SCCOP(=O)(OCCSC(C)=O)OC[C@@H]1CC[C@H](n2cnc3c(N)ncnc32)O1` [Bis(SATE)ddAMP, O-(2′,3′-Dideoxyadenosin-5′-yl)—O,O′-bis(S-acetyl-2-thioethyl)-phosphate], the CD50 result in data set [1] is recorded as “(CD50 > 10^−5 M)”. For the same molecule, in data set [2], the “time in which the first (iso-)SATE group was cleaved” value (“time in which the first” for short) was found to be 165 h and the “time in which the second (iso-)SATE group was cleaved” value was determined as 46 h. Also, the “time in which the first” value in data set [3] came to 1 h.

Turning to `Cc1cn([C@H]2C=C[C@@H](CO)O2)c(=O)[nH]c1=O` [d4T, reference compound], in the data set with HIV-1 (LAI isolate) [4] (thymidine-kinase deficient CEM cells), the “anti-HIV-1 activity (in words, FIG. 10)” value is “weakly active”.

For `Cc1cn([C@H]2C[C@H](N=[N+]=[N-])[C@@H](COP(=O)(OCCSSCCO)OCCSSCCO)O2)c(=O)[nH]c1=O` [Compound 3, O,O′-Bis(S-(2-hydroxyethylsufidyl)-2-thioethyl)-O-(3′azido-3′-deoxythymidin-5′-yl)phosphate], the EC50 in the data set on HIV-1 (LAI isolate) [4] amounted to 7 µM; in the data set with HIV-1 (LAI isolate) [5] it was 0.0007 µM; in the data set on HIV-1, 0.001 µM. The CD50 entry (in data set [1]; in [6]; in the data set with non-infected MT-4 cells) was “(CD50 8 · 10^−5 M)” each time.

With `CC(=O)SCCOP(=O)(OCCSC(C)=O)OC[C@@H]1CC[C@H](n2cc(C)c(=O)[nH]c2=O)O1` [Bis(SATE)ddTMP, O-(2′,3′-Dideoxythymidin-5′-yl)-O,O′-bis(S-acetyl-2-thioethyl)-phosphate], the CD50 result in [1] is listed as “(CD50 > 10^−4 M)”.

As for `Cc1cn([C@H]2C[C@H](N=[N+]=[N-])[C@@H](CO)O2)c(=O)[nH]c1=O` [AZT, 3′-azido-2′,3,-dideoxythymidine, reference compound], the EC50 in the data set on HIV-1 (LAI isolate) [4] was above 100 µM. In addition, the CD50 entry (in data set [1]; in data set [6]; with non-infected MT-4 cells) was “(CD50 > 10^−4 M)” in each case.

As for `CC(C)(C)C(=O)OCCSP(=O)(OC[C@@H]1CC[C@H](n2cnc3c(N)ncnc32)O1)SCCOC(=O)C(C)(C)C` [iso[Bis(SATE)ddA], S,S′-bis (Ö-pivaloyl-2-oxyethyl) O2′,3′-dideoxyadenosin-5′-yl phosphorodithiolate], in [2] (setting [7]), the “time in which the first” value amounted to 38.5 h and the “time in which the second (iso-)SATE group was cleaved” value is 5.8 h. Further, in data set [3] (total cell extracts), the “time in which the first” value stood at 5.3 h.

As for `O=c1ccn([C@H]2CC[C@@H](COP(=O)(OCCSSCCO)OCCSSCCO)O2)c(=O)[nH]1` [Compound 2, O,O′-Bis(S-(2-hydroxyethylsufidyl)-2-thioethyl)-o-(2′,3′-dideoxyuridin-5′-yl)phosphate], the EC50 with HIV-1 (LAI isolate) [4] worked out at 8 µM; in the data set with HIV-1 (LAI isolate) [5] it was 60 µM. For the same molecule, the CD50 entry in data set [1] is “(CD50 8 · 10^−5 M)”; in data set [6], “(CD50 10^−4 M)”. For the same molecule, the “half-life in culture medium” value in data set [2] (RPMI/10% inactivated serum) was determined as 9 h. Moreover, the “half-life in cell extract” value in [3] (total cell extract (CEM)) is given as “less than 5 minutes”.

For the molecule `O=c1ccn([C@H]2CC[C@@H](COP(=O)(O)OP(=O)(O)OP(=O)(O)O)O2)c(=O)[nH]1` [2′,3′-Dideoxyuridine 5′-triphosphate], the “inhibition of reverse transcriptase (in words)” value at reverse transcriptase is on record as “excellent inhibitor”.

In the case of `Nc1ncnc2c1ncn2CCOCP(=O)(OCCSSCCO)OCCSSCCO` [Compound 4], the EC50 in the data set on HIV-1 (LAI isolate) [4] was found to be 0.08 µM; with HIV-1 (LAI isolate) [5], 3 µM; with HIV-1, 0.8 µM. Moreover, the CD50 entry in data set [1] was “(CD50 4 · 10^−5 M)”; in [6], “(CD50 > 10^−4 M)”; in the data set with non-infected MT-4 cells it was “(CD50 2 · 10^−5 M)”.

`CC(=O)SCCOP(=O)(OCCSC(C)=O)OC[C@@H]1CC[C@H](n2cnc3c(=O)[nH]cnc32)O1` [Bis(SATE)ddIMP, O-(2′,3″ -Dideoxyinosin-5′-yl)-O,O′-bis(S-acetyl-2-thioethyl)-phosphate]: the CD50 result (in data set [1]; in [6]; in the data set with non-infected MT-4 cells) was “(CD50 > 10^−4 M)” each time.

As to `Nc1ncnc2c1ncn2[C@H]1CC[C@@H](CO)O1` [ddA, reference compound], the EC50 with HIV-1 was 10 µM. In addition, the CD50 entry (in data set [1]; in data set [6]; with non-infected MT-4 cells) was “(CD50 > 10^−4 M)” in each case.

`O=c1[nH]cnc2c1ncn2[C@H]1CC[C@@H](CO)O1` [ddI, reference compound]: the CD50 result (in data set [1]; in data set [6]; in the data set with non-infected MT-4 cells) was “(CD50 > 10^−4 M)” in each case.

As to `CC(=O)SCCOP(=O)(OCCSC(C)=O)OC[C@@H]1CC[C@H](n2ccc(=O)[nH]c2=O)O1` [Compound 1, O-(2′,3′-dideoxyuridin-5′-yl)-O,O′-bis(S-acetyl-2-thioethyl)phosphate], the EC50 in the data set with HIV-1 (LAI isolate) [4] came out at 4 µM; with HIV-1 (LAI isolate) [5], 5 µM. Moreover, the ED50 in the data set with HIV-1 was 2 · 10^−6 M. Besides, the CD50 entry is “(CD50 7 · 10^−5 M)” in data set [1], “(CD50 9 · 10^−5 M)” in data set [6] and “(CD50 9 · 10^−5 M)” with non-infected MT-4 cells.
